From patent US7411093B2, “Aminocycloalkanes as DPP-IV inhibitors” (Hoffman-La Roche Inc., priority 2004, dated 2008)
pIC50: −log10 of the molar value.

The compounds below were run against T1, human DPP-IV (Homo sapiens, UniProt P27487) (assay: DPP-IV activity assay (fluorogenic or colorimetric substrate)). Details: natural human DPP-IV from human plasma pool or recombinant human DPP-IV; 37° C., pH 7.8.
T1 construct: made in house; host or cells: Pichia pastoris (secreted, purified from culture medium)
T1 sequence (P27487 31-766): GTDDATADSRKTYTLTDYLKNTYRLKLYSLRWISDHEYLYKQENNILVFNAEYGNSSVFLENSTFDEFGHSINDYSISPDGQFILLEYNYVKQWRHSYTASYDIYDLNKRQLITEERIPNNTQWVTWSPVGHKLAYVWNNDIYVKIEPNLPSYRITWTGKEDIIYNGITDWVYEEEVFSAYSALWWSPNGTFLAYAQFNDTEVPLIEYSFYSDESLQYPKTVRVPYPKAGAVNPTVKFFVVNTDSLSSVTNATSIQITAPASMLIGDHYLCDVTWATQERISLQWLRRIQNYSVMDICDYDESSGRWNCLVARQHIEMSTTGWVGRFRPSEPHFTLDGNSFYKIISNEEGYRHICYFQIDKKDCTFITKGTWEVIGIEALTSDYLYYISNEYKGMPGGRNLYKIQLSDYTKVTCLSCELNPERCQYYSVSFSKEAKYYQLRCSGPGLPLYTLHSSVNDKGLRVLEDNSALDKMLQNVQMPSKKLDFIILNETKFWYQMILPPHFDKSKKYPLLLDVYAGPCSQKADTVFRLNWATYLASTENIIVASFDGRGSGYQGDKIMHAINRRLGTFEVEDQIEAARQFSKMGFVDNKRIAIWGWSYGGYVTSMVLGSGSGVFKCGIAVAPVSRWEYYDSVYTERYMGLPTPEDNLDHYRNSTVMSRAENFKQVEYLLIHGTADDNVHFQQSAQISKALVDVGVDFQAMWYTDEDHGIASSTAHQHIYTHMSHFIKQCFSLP
Assay type: biochemical
Procedure: Activity of DPP-IV inhibitors are tested with natural human DPP-IV derived from a human plasma pool or with recombinant human DPP-IV. Human citrate plasma from different donors is pooled, filtered through a 0.2 micron membrane under sterile conditions and aliquots of 1 ml are shock frozen and stored at −120° C. until used. In the colorimetric DPP-IV assay 5 to 10 μl human plasma and in the fluorometric assay 1.0 μl of human plasma in a total assay volume of 100 μl is used as an enzyme source. The cDNA of the human DPP-IV sequence of amino acid 31- to 766, restricted for the N-terminus and the transmembrane domain, is cloned into Pichia pastoris. Human DPP-IV is expressed and purified from the culture medium using conventional column chromatography including size exclusion and anion and cation chromatography. The purity of the final enzyme preparation of Coomassie blue SDS-PAGE is >95%. In the colorimetric DPP-IV assay 20 ng rec.-h DPP-IV and in the fluorometric assay 2 ng rec-h DPP-IV in a total assay volume of 100 μl is used as an enzyme source.
In the fluorogenic assay Ala-Pro-7-amido-4-trifluoromethylcoumarin (Calbiochem No 125510) is used as a substrate. A 20 mM stock solution in 10% DMF/H2O is stored at −20° C. until use. In IC50 determinations a final substrate concentration of 50 μM is used. In assays to determine kinetic parameters as Km, Vmax, Ki, the substrate concentration is varied between 10 μM and 500 μM.
In the colorimetric assay H-Ala-Pro-pNA.HCl (Bachem L-11115) is used as a substrate. A 10 mM stock solution in 10% MeOH/H2O is stored at −20° C. until use. In IC50 determinations a final substrate concentration of 200 μM is used. In assays to determine kinetic parameters as Km, Vmax, Ki, the substrate concentration is varied between 100 μM and 2000 μM.
Fluorescence is detected in a Perkin Elmer Luminescence Spectrometer LS 50B at an excitation wavelength of 400 nm and an emission wavelength of 505 nm continuously every 15 seconds for 10 to 30 minutes. Initial rate constants are calculated by best fit linear regression.
The absorption of pNA liberated from the colorimetric substrate is detected in a Packard SpectraCount at 405 nm continuously every 2 minutes for 30 to 120 minutes. Initial rate constants are calculated by best fit linear regression.
DPP-IV activity assays are performed in 96 well plates at 37° C. in a total assay volume of 100 μl. The assay buffer consists of 50 mM Tris/HCl, pH 7.8 containing 0.1 mg/ml BSA and 100 mM NaCl. […]
IC50 determinations of test compounds are calculated by non-linear best fit regression of the DPP-IV inhibition of at least 5 different compound concentrations. Kinetic parameters of the enzyme reaction are calculated at least 5 different substrate concentrations and at least 5 different test compound concentrations.

Compound | pIC50
CC1=CC(=O)N([C@@H]2CCCC[C@H]2N)C1 (relative stereo) [Example 30, trans-1-(2-Amino-cyclohexyl)-4-methyl-1,5-dihydro-pyrrol-2-one] | 6.14
N[C@@H]1CCCC[C@@H]1c1cc(Cl)ccc1Cl (relative stereo) [Example 7, (cis)-2-(2,5-Dichloro-phenyl)-cyclohexylamine] | 6.89
Cc1ccc(C)c([C@@H]2CCCC[C@H]2N)c1 (relative stereo) [Example 18, (trans)-2-(2,5-Dimethyl-phenyl)-cyclohexylamine] | 6.80
N[C@@H]1CCCCC[C@H]1c1cc(Cl)ccc1Cl (relative stereo) [Example 24, (trans)-2-(2,5-Dichloro-phenyl)-cycloheptylamine] | 6.14
